According to patent publication US6706663B2, “Herbicidal 3-heterocyclic substituted benzisothiazole and benzisoxazole compounds” (Wyeth, priority 2000, dated 2004):

Assays:
[1] = tested on: TRZAWR (Wheat, Winter, cv Riband); test: Postemergence herbicidal evaluation; assay type: in vivo, Triticum aestivum
Method in brief: (§1)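 Seedlings grown about two weeks in flats, sprayed, then kept under standard greenhouse care. Rated visually 4–5 weeks after treatment on a 0–9 scale (stand, vigour, malformation, size, chlorosis, overall appearance) relative to untreated control; repeat tests averaged.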

CYPIR (Cyperus iria) = test: Flooded paddy, preemergence weed control; assay type: in vivo; conditions: rated 3-4 weeks after treatment, 0-9 rating scale
Method in brief: (§2)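 Visual 0-9 rating versus control, scoring stand, vigor, malformation, size, chlorosis and overall appearance. Silt loam soil, propagules in top 0.5 cm; flood depth 1.5–3 cm held for the whole test; greenhouse.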

[2] = tested on: AMBEL (Ambrosia artemisifolia); test: Postemergence herbicidal evaluation; assay type: in vivo, L.
Method in brief: as §1

[3] = tested on: CASOB (Cassia obtusifolia); test: Postemergence herbicidal evaluation; assay type: in vivo, L.
Method in brief: as §1

[4] = tested on: CHEAL (Chenopodium album); test: Postemergence herbicidal evaluation; assay type: in vivo, L.
Method in brief: as §1

ORYSAT (Rice, Tebonnet) [5] = test: Preemergence herbicidal evaluation; assay type: in vivo, Oryza sativa, (L.) Tebonnet; conditions: preemergence, rated 4-5 weeks after treatment
[6] = tested on: SAGPY (Sagittaria pygmaea); test: Flooded paddy, preemergence weed control; assay type: in vivo, L.; conditions: rated 3-4 weeks after treatment, 0-9 rating scale
Method in brief: as §2

[7] = tested on: CYPSE (Cyperus serotinus); test: Flooded paddy, preemergence weed control; assay type: in vivo, Rottb.; conditions: rated 3-4 weeks after treatment, 0-9 rating scale
Method in brief: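 Seeds or propagules were planted 0.5 cm deep in silt loam and flooded to 1.5–3 cm. Compounds in 50/50 v/v aqueous/acetone were pipetted into the flood water at about 0.0080 to 0.1250 kg/ha. After 3–4 weeks in the greenhouse, effect was rated visually on a 0–9 scale versus untreated control.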

[8] = tested on: ECHCG (Echinochloa crus-galli); test: Preemergence herbicidal evaluation; assay type: in vivo, (L.) Beau; conditions: preemergence, rated 4-5 weeks after treatment
Method in brief: (§3)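 Seeds planted in potting soil cups and sprayed preemergence with aqueous acetone compound solution. Greenhouse-grown; rated 4–5 weeks after treatment on a 0-9 visual scale (stand, vigor, malformation, size, chlorosis, appearance) versus control.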

SETVI (Setaria viridis) [9] = test: Preemergence herbicidal evaluation; assay type: in vivo, (L.) Beau; conditions: preemergence, rated 4-5 weeks after treatment
Method in brief: as §3

[10] = tested on: AMBEL (Ambrosia artemisifolia); test: Preemergence herbicidal evaluation; assay type: in vivo, L.; conditions: preemergence, rated 4-5 weeks after treatment
Method in brief: as §3

[11] = tested on: CASOB (Cassia obtusifolia); test: Preemergence herbicidal evaluation; assay type: in vivo, L.; conditions: preemergence, rated 4-5 weeks after treatment
Method in brief: as §3

[12] = tested on: CHEAL (Chenopodium album); test: Preemergence herbicidal evaluation; assay type: in vivo, L.; conditions: preemergence, rated 4-5 weeks after treatment
Method in brief: as §3

ORYSAT (Rice, Tebonnet) [13] = test: Postemergence herbicidal evaluation; assay type: in vivo, Oryza sativa, (L.) Tebonnet
Method in brief: as §1

[14] = tested on: ABUTH (Abutilon theophrasti); test: Postemergence herbicidal evaluation; assay type: in vivo, Medic.
Method in brief: as §1

GALAP (Galium aparine) [15] = test: Preemergence herbicidal evaluation; assay type: in vivo; conditions: preemergence, rated 4-5 weeks after treatment
Method in brief: as §3

SETVI (Setaria viridis) [16] = test: Postemergence herbicidal evaluation; assay type: in vivo, (L.) Beau
Method in brief: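 Visual injury score (0-9: stand, vigor, malformation, size, chlorosis, overall appearance vs untreated control) taken four to five weeks post-spray. Two-week-old seedlings received about 0.0040 to 1.000 kg/ha active compound in acetone/water with 0.5% TWEEN 20.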

[17] = tested on: MOOVA (Monochoria vaginalis); test: Flooded paddy, preemergence weed control; assay type: in vivo, Presl.; conditions: rated 3-4 weeks after treatment, 0-9 rating scale
Method in brief: as §2

GALAP (Galium aparine) [18] = test: Postemergence herbicidal evaluation; assay type: in vivo
Method in brief: as §1

[19] = tested on: IPOHE (Ipomoea hederacea); test: Postemergence herbicidal evaluation; assay type: in vivo, (L.) Jacq.
Method in brief: as §1

Cn1c(C(F)(F)F)cc(=O)n(-c2ccc3snc(-c4ccsc4)c3c2)c1=O [Compound 1, 1-methyl-3-[3-(3-thienyl)-1,2-benzisothiazol-5-yl]-6-(trifluoromethyl)uracil]
Postemergence herbicidal rating, TRZAWR ([1]; rate 0.0320 kg/ha): 3.5 | Postemergence herbicidal rating, TRZAWR ([1]; rate 0.0620 kg/ha): 3.5 | Postemergence herbicidal rating, TRZAWR ([1]; rate 0.1250 kg/ha): 4.3 | herbicidal rating, CYPIR (CYPIR (Cyperus iria); rate 0.0080 kg/ha): 9.0 | herbicidal rating, CYPIR (CYPIR (Cyperus iria); rate 0.0320 kg/ha): 9.0 | herbicidal rating, CYPIR (CYPIR (Cyperus iria); rate 0.1250 kg/ha): 9.0 | Postemergence herbicidal rating, AMBEL ([2]; rate 0.0320 kg/ha): 9.0 | Postemergence herbicidal rating, AMBEL ([2]; rate 0.0620 kg/ha): 9.0 | Postemergence herbicidal rating, AMBEL ([2]; rate 0.1250 kg/ha): 9.0 | Postemergence herbicidal rating, CASOB ([3]; rate 0.0320 kg/ha): 5.5 | Postemergence herbicidal rating, CASOB ([3]; rate 0.0620 kg/ha): 7.5 | Postemergence herbicidal rating, CASOB ([3]; rate 0.1250 kg/ha): 9.0 | Postemergence herbicidal rating, CHEAL ([4]; rate 0.0320 kg/ha): 9.0 | Postemergence herbicidal rating, CHEAL ([4]; rate 0.0620 kg/ha): 9.0 | Postemergence herbicidal rating, CHEAL ([4]; rate 0.1250 kg/ha): 9.0 | ORYSAT preemergence herbicidal rating (ORYSAT (Rice, Tebonnet) [5]; Rate 0.0620 kg/ha): 5.0 | ORYSAT preemergence herbicidal rating (ORYSAT (Rice, Tebonnet) [5]; Rate 0.1250 kg/ha): 5.0 | ORYSAT preemergence herbicidal rating (ORYSAT (Rice, Tebonnet) [5]; Rate 0.2500 kg/ha): 6.5 | herbicidal rating, SAGPY ([6]; rate 0.0080 kg/ha): 4.0 | herbicidal rating, SAGPY ([6]; rate 0.0320 kg/ha): 4.0 | herbicidal rating, SAGPY ([6]; rate 0.1250 kg/ha): 5.5 | herbicidal rating, CYPSE ([7]; rate 0.0320 kg/ha): 3.5 | herbicidal rating, CYPSE ([7]; rate 0.1250 kg/ha): 9.0 | ECHCG preemergence herbicidal rating ([8]; Rate 0.0620 kg/ha): 7.3 | ECHCG preemergence herbicidal rating ([8]; Rate 0.1250 kg/ha): 8.0 | ECHCG preemergence herbicidal rating ([8]; Rate 0.2500 kg/ha): 9.0 | SETVI preemergence herbicidal rating (SETVI (Setaria viridis) [9]; Rate 0.0620 kg/ha): 9.0 | SETVI preemergence herbicidal rating (SETVI (Setaria viridis) [9]; Rate 0.1250 kg/ha): 9.0 | SETVI preemergence herbicidal rating (SETVI (Setaria viridis) [9]; Rate 0.2500 kg/ha): 9.0 | AMBEL preemergence herbicidal rating ([10]; Rate 0.0620 kg/ha): 7.3 | AMBEL preemergence herbicidal rating ([10]; Rate 0.1250 kg/ha): 9.0 | AMBEL preemergence herbicidal rating ([10]; Rate 0.2500 kg/ha): 9.0 | CASOB preemergence herbicidal rating ([11]; Rate 0.0620 kg/ha): 7.3 | CASOB preemergence herbicidal rating ([11]; Rate 0.1250 kg/ha): 8.3 | CASOB preemergence herbicidal rating ([11]; Rate 0.2500 kg/ha): 8.3 | CHEAL preemergence herbicidal rating ([12]; Rate 0.0620 kg/ha): 9.0 | CHEAL preemergence herbicidal rating ([12]; Rate 0.1250 kg/ha): 9.0 | CHEAL preemergence herbicidal rating ([12]; Rate 0.2500 kg/ha): 9.0 | Postemergence herbicidal rating, ORYSAT (ORYSAT (Rice, Tebonnet) [13]; rate 0.0320 kg/ha): 3.5 | Postemergence herbicidal rating, ORYSAT (ORYSAT (Rice, Tebonnet) [13]; rate 0.0620 kg/ha): 3.5 | Postemergence herbicidal rating, ORYSAT (ORYSAT (Rice, Tebonnet) [13]; rate 0.1250 kg/ha): 5.0 | Postemergence herbicidal rating, ABUTH ([14]; rate 0.0320 kg/ha): 9.0 | Postemergence herbicidal rating, ABUTH ([14]; rate 0.0620 kg/ha): 9.0 | Postemergence herbicidal rating, ABUTH ([14]; rate 0.1250 kg/ha): 9.0 | GALAP preemergence herbicidal rating (GALAP (Galium aparine) [15]; Rate 0.0620 kg/ha): 9.0 | GALAP preemergence herbicidal rating (GALAP (Galium aparine) [15]; Rate 0.1250 kg/ha): 7.0 | GALAP preemergence herbicidal rating (GALAP (Galium aparine) [15]; Rate 0.2500 kg/ha): 6.5 | Postemergence herbicidal rating, SETVI (SETVI (Setaria viridis) [16]; rate 0.0320 kg/ha): 7.0 | Postemergence herbicidal rating, SETVI (SETVI (Setaria viridis) [16]; rate 0.0620 kg/ha): 6.5 | Postemergence herbicidal rating, SETVI (SETVI (Setaria viridis) [16]; rate 0.1250 kg/ha): 8.0 | herbicidal rating, MOOVA ([17]; rate 0.0080 kg/ha): 9.0 | herbicidal rating, MOOVA ([17]; rate 0.0320 kg/ha): 9.0 | herbicidal rating, MOOVA ([17]; rate 0.1250 kg/ha): 9.0 | Postemergence herbicidal rating, GALAP (GALAP (Galium aparine) [18]; rate 0.0320 kg/ha): 5.0 | Postemergence herbicidal rating, GALAP (GALAP (Galium aparine) [18]; rate 0.0620 kg/ha): 6.5 | Postemergence herbicidal rating, GALAP (GALAP (Galium aparine) [18]; rate 0.1250 kg/ha): 7.5 | Postemergence herbicidal rating, IPOHE ([19]; rate 0.0320 kg/ha): 9.0 | Postemergence herbicidal rating, IPOHE ([19]; rate 0.0620 kg/ha): 9.0 | Postemergence herbicidal rating, IPOHE ([19]; rate 0.1250 kg/ha): 9.0
